The values below come from paper PMC9225712, “Rational design of biodegradable sulphonamide candidates treating septicaemia by synergistic dual inhibition of COX-2/PGE2 axis and DHPS enzyme” (Journal of Enzyme Inhibition and Medicinal Chemistry, 2022).

For one data set, the target named is T1, ovine COX-1 (Ovis aries, UniProt P05979).
T1 construct: purchased Cayman Chemicals Inc. 560131
T1 sequence (P05979 25-600): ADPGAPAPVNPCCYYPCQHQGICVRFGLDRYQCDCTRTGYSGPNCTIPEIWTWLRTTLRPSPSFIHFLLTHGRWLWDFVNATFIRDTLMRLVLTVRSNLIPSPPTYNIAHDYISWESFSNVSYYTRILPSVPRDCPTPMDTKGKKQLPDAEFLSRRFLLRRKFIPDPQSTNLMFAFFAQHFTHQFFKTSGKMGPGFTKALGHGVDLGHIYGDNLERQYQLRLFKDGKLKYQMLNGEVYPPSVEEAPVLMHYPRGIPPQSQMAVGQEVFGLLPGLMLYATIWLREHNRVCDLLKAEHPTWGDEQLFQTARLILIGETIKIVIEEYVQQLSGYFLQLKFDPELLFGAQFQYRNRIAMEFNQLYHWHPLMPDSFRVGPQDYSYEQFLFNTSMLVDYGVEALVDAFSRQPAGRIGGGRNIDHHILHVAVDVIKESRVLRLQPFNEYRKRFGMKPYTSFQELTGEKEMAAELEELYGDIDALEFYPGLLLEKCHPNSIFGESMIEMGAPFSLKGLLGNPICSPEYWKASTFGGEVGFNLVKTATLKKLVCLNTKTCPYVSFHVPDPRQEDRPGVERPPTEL
In words: In vitro COX-1 enzymatic assay (Cayman kit 560131). The settings on record: Mean ± SEM of triplicate determinations. It is filed as biochemical.

A further data set deals with gastric layers. In words: Gastric ulcerogenic activity. The following applies: fasted male Wistar rats, oral 30 µmol/kg twice at 4 h interval.
The test system of data set [1] is Salmonella typhi (RCMB 0100104). In words: Inhibition zone, agar cup diffusion. It is filed as cell-based. The settings on record: Salmonella enterica, 24 h, read-out: inhibition zones (IZ) S. typhi.
In data set [2] the test system is Shigella dysenteriae (RCMB 0100542). In words: Inhibition zone, agar cup diffusion. It counts as cell-based. The settings on record: RCMB0100542, 24 h, read-out: inhibition zones (IZ) S. dysenteriae.
Data set [3] has as its system Gram-positive and Gram-negative bacteria. In words: In vitro antibacterial screening, whole panel. It counts as cell-based. The following applies: whole bacterial panel, result in words.
The test system of a further data set is PGE2. In words: Estimation of rat plasma PGE2. The settings on record: po 10 µmol/kg b.wt., 8 h after carrageenan; for % inhibition of PGE2-production: rat serum; for PGE2 serum conc.: rat, Mean ± SEM, n = 5.
The subject of data set [4] is Staphylococcus aureus (RCMB 0100183). In words: Inhibition zone, agar cup diffusion. The settings on record: RCMB0100183, 24 h, read-out: inhibition zones (IZ) S. aureus.
The test system of data set [5] is Staphylococcus epidermidis (RCMB 0100183). In words: Inhibition zone, agar cup diffusion. The settings on record: RCMB0100183, 24 h, read-out: inhibition zones (IZ) S. epidermidis.
In data set [6] the test system is Streptococcus mutans (RCMB 0100172). In words: Inhibition zone, agar cup diffusion. The settings on record: RCMB0100172, 24 h, read-out: inhibition zones (IZ) S. mutans.
The subject of data set [7] is Bacillus subtilis (RCMB 0100162). In words: Inhibition zone, agar cup diffusion. The settings on record: RCMB0100162, 24 h, read-out: inhibition zones (IZ) B. subtillis.
Data set [8] relates to Pseudomonas aeruginosa (RCMB 0100243). In words: Inhibition zone, agar cup diffusion. The following applies: RCMB0100243, 24 h, read-out: inhibition zones (IZ) P.aeruginosa.
Data set [9] has as its system Escherichia coli (RCMB 010052). In words: Inhibition zone, agar cup diffusion. The settings on record: RCMB010052, 24 h, read-out: inhibition zones (IZ) E.coli.
Data set [10] relates to Proteus vulgaris (RCMB 010085). In words: Inhibition zone, agar cup diffusion. The following applies: RCMB010085, 24 h, read-out: inhibition zones (IZ) P. vulgaris.
The test system of data set [11] is carrageenan-induced paw edoema. In words: Carrageenan-induced paw edoema in mice. The following applies: for ED50: Mus musculus, 8 h, read-out: ED50 (95% confidence level); for Thickness of edoema 0h / percentage anti-inflammatory activity (AI%) 2h / Thickness of edoema 2h / percentage anti-inflammatory activity (AI%) 4h / Thickness of edoema 4h / percentage anti-inflammatory activity (AI%) 6h / Thickness of edoema 6h / Thickness of edoema 8h: mice, po 10 µmol/kg b.wt.; for Thickness of edoema 0h: 0 h (before carrageenan); for Thickness of edoema 0h / Thickness of edoema 2h / Thickness of edoema 4h / Thickness of edoema 6h / Thickness of edoema 8h: Mean ± SEM, n = 5; for Thickness of edoema 2h: 2 h after carrageenan; for Thickness of edoema 4h: 4 h after carrageenan; for Thickness of edoema 6h: 6 h after carrageenan; for Thickness of edoema 8h: 8 h after carrageenan.

Another data set has as its target T2, human recombinant COX-2 (Homo sapiens, UniProt P35354).
T2 sequence (P35354 18-604): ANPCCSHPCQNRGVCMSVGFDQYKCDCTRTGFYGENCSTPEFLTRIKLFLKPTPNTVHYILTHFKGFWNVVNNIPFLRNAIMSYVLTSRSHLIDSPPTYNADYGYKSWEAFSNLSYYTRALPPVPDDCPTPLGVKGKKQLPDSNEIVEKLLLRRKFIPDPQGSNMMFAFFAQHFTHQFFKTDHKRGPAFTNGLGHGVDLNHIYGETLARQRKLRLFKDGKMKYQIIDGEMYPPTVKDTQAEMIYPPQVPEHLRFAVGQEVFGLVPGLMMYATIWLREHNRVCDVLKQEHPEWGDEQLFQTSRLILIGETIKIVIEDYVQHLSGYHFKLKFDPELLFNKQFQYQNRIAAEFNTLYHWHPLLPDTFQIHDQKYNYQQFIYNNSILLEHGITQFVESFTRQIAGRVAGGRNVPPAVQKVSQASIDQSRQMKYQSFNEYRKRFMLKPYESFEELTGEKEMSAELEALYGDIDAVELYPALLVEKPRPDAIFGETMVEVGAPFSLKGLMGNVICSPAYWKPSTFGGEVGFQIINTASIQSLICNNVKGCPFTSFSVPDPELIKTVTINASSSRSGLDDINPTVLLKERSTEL
In words: In vitro COX-2 enzymatic assay (Cayman kit 560131). The settings on record: for SI COX-1/COX-2: COX-2 selectivity index: COX-1 IC50/COX-2 IC50.

Marks after values point to notes of the source that are not given here.

Turning to `CCCCNC(=O)c1cc(/N=N/c2ccc(S(=O)(=O)Nc3nccs3)cc2)ccc1O` [Compound 5b, N-Butyl-2-hydroxy-5-((4-(N-(thiazol-2-yl)sulfamoyl)phenyl)diazenyl) benzamide], the IC50 was found to be 12.2 ± 0.06 µM against ovine COX-1 and 0.07 ± 0.0005 µM at human recombinant COX-2. In the data set on gastric layers, the “Gastric ulcerogenic effect, histopathological examination of gastric layers” value was “gastrointestinal safety profile”. Further, the zone of inhibition at 1000 µg/mL in data set [1] was determined as 14 mm; in [2], 22 mm; in data set [4] it was 29 mm; in data set [5] it was 34 mm; in [6] it was 27 mm; in data set [7], 20 mm. The zone of inhibition at 1000 µg/mL came to 16 mm in data set [8], 14 mm in data set [9] and 19 mm in [10]. The “in vitro antibacterial activity” value in data set [3] is recorded as “weak in vitro antibacterial activity”. In the data set on PGE2, the “% inhibition of PGE2-production” value is recorded as 65.70%. Further, the PGE2 serum conc. in the data set with PGE2 is 452.954 ± 6.48 pg/mL. Also, the ED50 in data set [11] was 18.7 µmol/kg; in the data set with S. aureus Smith (Staphylococcus aureus, in Mus musculus, read-out: ED50 against S. aureus infection), 413 µmol/kg; in the data set with E. coli C11 (Escherichia coli, C11, in Mus musculus, read-out: ED50 against E.coli infection) it was 416 µmol/kg. Besides, the “Thickness of edoema 0h” value in data set [11] worked out at 0.68 ± 0.01 mm. In addition, in [11], the “percentage anti-inflammatory activity (AI%) 2h” value was “(0%)”. Further, the “Thickness of edoema 2h” value in data set [11] is reported as 0.95 ± 0.04 mm. Besides, the “percentage anti-inflammatory activity (AI%) 4h” value in data set [11] is reported as “(20.83%)”. The “Thickness of edoema 4h” value in [11] was determined as 1.19 ± 0.01 mm. For the same compound, the “percentage anti-inflammatory activity (AI%) 6h” value in data set [11] is recorded as “(45.85%)”. Also, in [11], the “Thickness of edoema 6h” value is listed as 1.11 ± 0.01 mm. In addition, the “Thickness of edoema 8h” value in data set [11] was determined as 1.01 ± 0.02 mm. For the same compound, on human recombinant COX-2, the “SI COX-1/COX-2” value is reported as 187.7. Moreover, in the data set on S. aureus Smith (mice, challenge dose 9.5x10^6 CFU/mouse ip, intragastric once a day for 7 days, survival), the “ED50, protective effect against bacteremic infection, Staphylococcus aureus” value was determined as 413.1 µmol/kg/day. Besides, the “ED50, protective effect against bacteremic infection, Escherichia coli” value in the data set on E. coli C11 (mice, challenge dose 7.1x10^3 CFU/mouse ip, intragastric once a day for 7 days, survival) was determined as 415.7 µmol/kg/day.

In the case of `Cc1ccnc(NS(=O)(=O)c2ccc(/N=N/c3ccc(O)c(C(=O)N4CCCCC4)c3)cc2)n1` [Compound 5k, 4-((4-Hydroxy-3-(piperidine-1-carbonyl)phenyl)diazenyl)-N-(4-methylpyrimidin-2-yl) benzenesulfonamide], the IC50 was found to be 10.3 ± 0.08 µM at ovine COX-1 and 0.09 ± 0.0003 µM at human recombinant COX-2. Besides, the zone of inhibition at 1000 µg/mL in [1] amounted to 14 mm; in data set [2] it was 25 mm; in data set [4] it was 19 mm; in data set [5], 32 mm; in data set [6] it was 28 mm; in data set [7], 18 mm. In addition, the zone of inhibition at 1000 µg/mL in data set [8] was 14 mm; in data set [9], 16 mm; in data set [10], 19 mm. In addition, in data set [3], the “in vitro antibacterial activity” value is given as “weak in vitro antibacterial activity”. The “SI COX-1/COX-2” value at human recombinant COX-2 is 111.9.

On to `O=C(c1cc(N=Nc2ccc(S(=O)(=O)Nc3nccs3)cc2)ccc1O)N1CCOCC1` [Compound 5m, 4-((4-Hydroxy-3-(morpholine-4-carbonyl)phenyl)diazenyl)-N-(thiazol-2-yl)benzenesulfonamide], for which the IC50 at ovine COX-1 was determined as 9.9 µM; on human recombinant COX-2, 0.1 ± 0.0008 µM. In addition, the zone of inhibition at 1000 µg/mL came to 16 mm in data set [1]; 24 mm in [2]; 25 mm in [4]; 33 mm in data set [5]; 29 mm in [6]; 20 mm in data set [7]. The zone of inhibition at 1000 µg/mL is 18 mm in [8], 18 mm in data set [9] and 16 mm in data set [10]. In addition, the “in vitro antibacterial activity” value in [3] is “weak in vitro antibacterial activity”. Further, at human recombinant COX-2, the “SI COX-1/COX-2” value was determined as 102.1.

For the compound `O=C(O)Cc1ccccc1Nc1c(Cl)cccc1Cl` [Diclofenac sodium, reference compound], in the data set on gastric layers, the “Gastric ulcerogenic effect, histopathological examination of gastric layers” value is reported as “erosion in the gastric layers”; the “Gastric ulcerogenic effect, monitoring of isolated stomachs” value is “signs of gastric ulcers and hyperaemia”. In the data set on PGE2, the “% inhibition of PGE2-production” value is listed as 79.10% and the PGE2 serum conc. is 276.052 ± 5.60 pg/mL. Also, in data set [11], the ED50 was found to be 11.5 µmol/kg, the “Thickness of edoema 0h” value turned out to be 0.69 ± 0.004 mm, the “percentage anti-inflammatory activity (AI%) 2h” value is on record as “(-11.58%)” and the “Thickness of edoema 2h” value is 1.06 ± 0.03^c mm. Further, in data set [11], the “percentage anti-inflammatory activity (AI%) 4h” value is recorded as “(38.19%)”, the “Thickness of edoema 4h” value is listed as 0.89 ± 0.01^c mm, the “percentage anti-inflammatory activity (AI%) 6h” value was “(60.98%)” and the “Thickness of edoema 6h” value is reported as 0.80 ± 0.01^c mm. In data set [11], the “Thickness of edoema 8h” value is reported as 0.71 ± 0.01^c mm.
